Source: a compilation of properties of binary mixtures (doi:10.1016/j.jct.2019.105906)

Test: xn = mol fraction of the nth substance listed
Settings: 100 kPa

CCCC[n+]1ccn(C)c1.F[P-](F)(F)(F)(F)F + CCOC(C)=O
speed of sound [m/s]
Settings | x1 = 0.1012 | x1 = 0.1992 | x1 = 0.312 | x1 = 0.3985 | x1 = 0.5056 | x1 = 0.5996 | x1 = 0.7054 | x1 = 0.7963 | x1 = 0.9185 | x1 = 1
298.15 K | 1182.1 | 1223.3 | 1269.2 | 1302 | 1337.9 | – | 1391.7 | 1410.1 | 1430.5 | 1443.8
303.15 K | 1161.8 | 1205 | 1252.8 | – | – | – | 1378.8 | 1397.4 | – | 1431.7
308.15 K | 1141.8 | 1186.7 | – | – | – | 1339.5 | 1366 | – | 1405.6 | 1419.8
313.15 K | 1121.4 | – | 1220.1 | 1256 | 1297.5 | 1325.9 | 1353.2 | 1371.9 | – | –
318.15 K | 1101.1 | – | 1203.7 | 1240.6 | – | 1312.6 | 1340.4 | – | – | –
323.15 K | 1081 | 1132.1 | 1187.3 | 1225.2 | – | 1299.1 | 1327.5 | 1346.6 | 1368.4 | 1385.6

CCOC(C)=O + CCCC[n+]1ccn(C)c1.F[P-](F)(F)(F)(F)F
x2 = 0
Settings | speed of sound [m/s]
303.15 K | 1120.8
308.15 K | 1098.7
313.15 K | 1076.4
318.15 K | 1054.1
323.15 K | 1032
